From US20120141539A1, “METHODS FOR MODULATING TOLL-LIKE RECEPTOR MEDIATED ACTIVATION OF CELLS OF THE INNATE SYSTEM BY MODULATING XBP-1 ACTIVITY” (PRESIDENT AND FELLOWS OF HARVARD COLLEGE, priority 2009, published 2012)

What was measured:
XBP-1 mRNA splicing [1] = assay: XBP-1 splicing assay in J774 macrophages; assay type: cell-based, mouse; conditions: for effect of inhibitor on LPS-induced XBP-1 splicing: LPS stimulation
IFNβ = conditions: macrophage cell line; J. Smith et al. 2008; cited from earlier work
XBP-1 mRNA splicing [2] = assay: XBP-1 splicing in primary macrophages; assay type: cell-based, mouse
IRE1α = IRE1α activation (phosphorylation status, immunoblot) in J774 macrophages; assay type: cell-based, mouse; conditions: J774 macrophages stimulated with the substance
Method: (§1) Total cell extracts were loaded on SDS-PAGE for separation and transferred to PDVF membranes. For Western blot the following antibodies were used: anti-XBP-1s (Biolegend), anti-phospho PERK, IRE1 and phospho-JNK (Cell Signaling), ATF4, HSP90, IkappaBβ and CHOP (Santa Cruz Biotechnology), anti-ATF6α and anti proIL-1β.
(§2) The ability of TLRs to activate the three branches of the ER stress response was tested. J774 macrophages were stimulated with the TLR4 and TLR2 agonists, LPS and Pam3CSK4, and IRE1α, PERK and ATF6 activation were analyzed. ATF6 activation was tested by monitoring the liberation of its cleaved fragment, and PERK and IRE1α activation by examining their phosphorylation status. […] To further examine the effects of TLR signaling on the classical. ER stress response, cells were stimulated with tunicamycin (TM), a potent pharmacologic ER-stress inducer, in the presence or absence of LPS. […] Therefore, TLRs trigger a biased ER-stress response by activating IRE1 while inhibiting the PERK and ATF6 pathways.

ATF6 = ATF6 activation (liberation of cleaved fragment) in J774 macrophages; assay type: cell-based, mouse; conditions: for activation of ATF6 (cleaved fragment): J774 macrophages stimulated with the substance
Method: as §1, §2

PERK = PERK activation (phosphorylation status) in J774 macrophages; assay type: cell-based, mouse; conditions: J774 macrophages stimulated with the substance
Method: as §1, §2

[3] = tested on: CHOP, BiP, Erdj4 and PDI expression; assay: ER-stress target gene expression (quantitative RT-PCR) in J774 macrophages; assay type: cell-based, mouse; conditions: for induction of the classic ER stress downstream target genes CHOP and BiP: J774 macrophages stimulated with the substance
Method: (§3) Total RNA was prepared using Trizol (Invitrogen) and cDNA synthesis with High capacity cDNA Reverse transcription kit purchased from Applied Biosystems. Quantitative RT-PCR was performed employing SYBR green fluorescent reagent on a Mx3005P® QPCR System from Strategene. The relative amounts of mRNA were calculated from the values of comparative threshold cycle by using β-actin as control.
as §2

[4] = tested on: CHOP, PDI, WSF1 expression; assay: ER-stress related gene expression in primary macrophages; assay type: cell-based, mouse
IL-6 = IL-6 production by LPS stimulated macrophages under ER stress; assay type: cell-based, mouse
ISG15 = ISG15 production by LPS stimulated macrophages under ER stress; assay type: cell-based, mouse; conditions: cells simultaneously ER-stressed with TM
Method: as §3
Therefore, it was determined whether augmenting this pathway through pharmacologic induction of an ER stress response would enhance the natural response to microbial products. […] Importantly, this finding was confirmed in primary WT and XBP-1Δ macrophages that were left untreated or pre-treated for 12 h with a low dose of TM and then stimulated with LPS for 3 h.

[5] = J774 macrophages, co-treatment with TM

Compound: c1ccc2c(c1)[I+]c1ccccc1-2 [DPI, diphenyleneiodonium chloride]
- effect of inhibitor on LPS-induced XBP-1 splicing (XBP-1 mRNA splicing [1]): abolished

Compound: COc1cc(C(C)=O)ccc1O [apocynin]
- effect of inhibitor on LPS-induced XBP-1 splicing (XBP-1 mRNA splicing [1]): abolished

Compound: C/C=C(/C)C(=O)O[C@H]1C(C)=C2[C@H]([C@@H]1OC(=O)CCCCCCC)[C@@](C)(OC(C)=O)C[C@H](OC(=O)CCC)[C@@]1(O)[C@H]2OC(=O)[C@@]1(C)O [thapsigargin]
- IFNβ production upon stimulation with LPS (IFNβ): increased IFNβ production

Compound: FSL1
- XBP-1 splicing in TLR2 deficient macrophages (XBP-1 mRNA splicing [2]): did not activate XBP-1 splicing

Compound: Pam3CSK4
- activation of IRE1α (slower migrating phosphorylated species) (IRE1α): Clear activation
- activation of ATF6 (cleaved fragment) (ATF6): neither activation of ATF6 or PERK
- activation of PERK (phosphorylation status) (PERK): neither activation of ATF6 or PERK
- induction of the classic ER stress downstream target genes CHOP and BiP [3]: nor induction of the classic ER stress downstream target genes, CHOP and BiP, was observed
- XBP-1 splicing in TLR2 deficient macrophages (XBP-1 mRNA splicing [2]): did not activate XBP-1 splicing
- TLR2 dampening of the ER-stress response: dependence on MyD88 ([4]; primary macrophages from MyD88 deficient mice): MyD88 dependent

Compound: lipopolysaccharide [LPS]
- activation of IRE1α (slower migrating phosphorylated species) (IRE1α): Clear activation
- activation of ATF6 (cleaved fragment) (ATF6): neither activation of ATF6 or PERK
- effect of co-treatment on proteolytic processing of ATF6α by TM (ATF6; [5]): dramatically repressed
- activation of PERK (phosphorylation status) (PERK): neither activation of ATF6 or PERK
- expression of the XBP-1 target genes Erdj4 or PDI ([3]; J774 macrophages): did not induce
- induction of the classic ER stress downstream target genes CHOP and BiP [3]: nor induction of the classic ER stress downstream target genes, CHOP and BiP, was observed
- effect of co-treatment on TM induction of mRNAs including CHOP, PDI and Erdj4 [3, 5]: dramatically repressed
- classic ER-stress response as measured by CHOP, BiP, Erdj4 and PDI expression ([3]; J774 macrophages, experiment with or without TM): did not induce a classic ER-stress response
- splicing of XBP-1 mRNA and production of XBP-1s protein (XBP-1 mRNA splicing [1]; J774 macrophages, time after stimulation): detected as early as 3 hours
- activation of XBP-1 in TLR4 mutant macrophages (XBP-1 mRNA splicing [2]; macrophages from mice carrying a mutation in the signaling domain of TLR4): did not activate XBP-1
- effect on TM-induced XBP-1 splicing (XBP-1 mRNA splicing [2]; macrophages, TM plus LPS): increased
- activation of XBP-1 in wild type primary macrophages (XBP-1 mRNA splicing [2]; primary macrophages from wild type (WT) mice): observed
- induction of classic ER-stress related genes such as CHOP or PDI ([4]; XBP-1Δ macrophages or WT macrophages): no induction

Compound: tunicamycin [TM]
- activation of IRE1α (slower migrating phosphorylated species) (IRE1α): induced activation of all three branches
- activation of ATF6 (cleaved fragment) (ATF6): induced activation of all three branches
- activation of PERK (phosphorylation status) (PERK): induced activation of all three branches
- induction of PDI and WSF1 in XBP-1Δ macrophages ([4]; XBP-1Δ macrophages versus WT): reduced
- amount of IL-6 produced by LPS stimulated macrophages (IL-6; cells simultaneously ER-stressed with TM): dramatically and synergistically increased
- IL-6 production in primary WT macrophages (IL-6; pre-treated 12 h with low dose of TM, then LPS 3 h): augmented IL-6 production
- amount of ISG15 produced by LPS stimulated macrophages (ISG15): dramatically and synergistically increased
